# Assay results: US20140107049A1, “MANNOSE DERIVATIVES FOR TREATING BACTERIAL INFECTIONS” (priority 2012, published 2014)
# Biological target: FimH-CRD (Escherichia coli, UniProt P08191)
# Assay: Competitive binding assay (fluorescence polarization, Alexa647 mannoside probe)
# Description: The following competitive binding assay is performed: Round bottom, low volume 384-well microtiter plates are filled with 20 μl/well of a binding solution of FimH-CRD in 50 mM Tris, pH 7.0, 100 mM NaCl, 1 mM EDTA, 5 mM beta mercaptoethanol, 0.05% BSA, 5 nM of the Alexa647 mannoside probe and 60 nM of the FimH-CRD. Control wells using the same conditions but no FimH-CRD added are also prepared (protein-free). Compounds are serially diluted (12-point dose) in DMSO from 75 μM down to 0.4 nM. Compounds or DMSO are then added to each well (0.5 μl) to reach the final concentration of each drug (2.5% final DMSO concentration), in duplicate. Plates are then incubated for a minimum of five hours at room temperature in the dark. Plates are then read using the SpectaMax Paradigm Multi-Mode plate reader and the appropriate fluorescent polarization Detection cartridge (Alexa-647).
# Alexa 647 mannoside probe is prepared using the similar procedure reported for FAM mannoside (Han, Z. et. al., 2010, J. Med. Chem., 53, 4779) and is described in the scheme below.
# To a blue colored stirred solution of (2S,3S,4S,5S,6R)-2-(4-aminobutoxy)-6-(hydroxymethyl)tetrahydropyran-3,4,5-triol (2.21 mg, 0.009 mmol) and the (2E)-2-[(2E,4E)-5-[3,3-dimethyl-5-sulfonato-1-(3-sulfonatopropyl)indol-1-ium-2-yl]penta-2,4-dienylidene]-3-[6-(2,5-dioxopyrrolidin-1-yl)oxy-6-oxo-hexyl]-3-methyl-1-(3-sulfonatopropyl)indoline-5-sulfonate (Potassium Ion (3)) (4.9 mg, 0.0044 mmol) in DMF (44 μL) is added Et3N (5.4 mg, 7.0 μL, 0.053 mmol) at rt. The solution is stirred at room temperature over night, concentrated, dissolved in water and purified on 12 g C-18 silica gel cartridge on Isolera system using acetonitrile in water (0 to 40%, 10 CV) and followed by lyophilization to afford Alexa 647 mannoside probe (3.3 mg, 34%) as deep blue solid.
# The Kd values of the compounds tested in duplicates are calculated with prism software (GraphPad Software, Inc, La Jolla, USA) with Alexa-647 probe and FimH-CRD.
# FimH-CRD, sequence (P08191 22-177): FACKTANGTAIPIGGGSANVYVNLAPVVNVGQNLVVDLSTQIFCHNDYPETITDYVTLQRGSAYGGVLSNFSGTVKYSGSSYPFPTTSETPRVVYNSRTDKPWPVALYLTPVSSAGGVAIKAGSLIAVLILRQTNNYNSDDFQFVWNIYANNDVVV
row,SMILES,Kd [nM]
1,"CNC(=O)c1cccc(-c2ccc(O[C@H]3O[C@H](CO)[C@@H](O)[C@H](C(O)[C@H]4O[C@H](CO)[C@@H](O)[C@H](O)[C@@H]4O)[C@@H]3O)cc2)c1 (stereo partly drawn) [Compound 1, 3-[4-[(2R,3S,4R,5S,6R)-3,5-Dihydroxy-6-(hydroxymethyl)-4-[hydroxy-[(2R,3S,4S,5S,6R)-3,4,5-trihydroxy-6-(hydroxymethyl)tetrahydropyran-2-yl]methyl]tetrahydropyran-2-yl]oxyphenyl]-N-methyl-benzamide]",29
2,"CO[C@H]1O[C@H](CO)[C@@H](O)[C@H](C(O)[C@H]2O[C@H](CO)[C@@H](O)[C@H](O)[C@@H]2O)[C@@H]1O (stereo partly drawn) [Compound 2, (2R,3S,4S,5S,6R)-2-[[(2R,3S,4R,5S,6S)-3,5-Dihydroxy-2-(hydroxymethyl)-6-methoxy-tetrahydropyran-4-yl]-hydroxy-methyl]-6-(hydroxymethyl)tetrahydropyran-3,4,5-triol]",124
3,"CNC(=O)c1cccc(-c2ccc(O[C@H]3O[C@H](CO)[C@@H](O)[C@H](C[C@H]4O[C@H](CO)[C@@H](O)[C@H](O)[C@@H]4O)[C@@H]3O)cc2)c1 [Compound 3, 3-[4-[(2R,3S,4S,5S,6R)-3,5-Dihydroxy-6-(hydroxymethyl)-4-[[(2R,3S,4R,5S,6R)-3,4,5-trihydroxy-6-(hydroxymethyl)tetrahydropyran-2-yl]methyl]tetrahydropyran-2-yl]oxyphenyl]-N-methyl-benzamide]",66
4,"CNC(=O)c1cccc(-c2ccc(O[C@H]3O[C@H](CO)[C@@H](O)[C@H](C[C@H]4O[C@H](CO)[C@@H](O)[C@H](O)[C@@H]4O)[C@@H]3O)c(C)c2)c1 [Compound 4, 3-[4-[(2R,3S,4S,5S,6R)-3,5-Dihydroxy-6-(hydroxymethyl)-4-[[(2R,3S,4R,5S,6R)-3,4,5-trihydroxy-6-(hydroxymethyl)tetrahydropyran-2-yl]methyl]tetrahydropyran-2-yl]oxy-3-methyl-phenyl]-N-methyl-benzamide]",51
5,"CNC(=O)c1cccc(O[C@H]2O[C@H](CO)[C@@H](O)[C@H](C[C@H]3O[C@H](CO)[C@@H](O)[C@H](O)[C@@H]3O)[C@@H]2O)c1 [Compound 5, 3-[(2R,3S,4S,5S,6R)-3,5-Dihydroxy-6-(hydroxymethyl)-4-[[(2R,3S,4R,5S,6R)-3,4,5-trihydroxy-6-(hydroxymethyl)tetrahydropyran-2-yl]methyl]tetrahydropyran-2-yl]oxy-N-methyl-benzamide]",72
6,"OC[C@H]1O[C@H](C[C@@H]2[C@H](O)[C@@H](Oc3cccc(O)c3)O[C@H](CO)[C@H]2O)[C@@H](O)[C@@H](O)[C@@H]1O [Compound 6, (2R,3S,4R,5S,6R)-2-[[(2R,3S,4S,5S,6R)-3,5-Dihydroxy-2-(hydroxymethyl)-6-(3-hydroxyphenoxy)tetrahydropyran-4-yl]methyl]-6-(hydroxymethyl)tetrahydropyran-3,4,5-triol]",301
7,"Cc1nnc(-c2ccc(-c3ccc(O[C@H]4O[C@H](CO)[C@@H](O)[C@H](C[C@H]5O[C@H](CO)[C@@H](O)[C@H](O)[C@@H]5O)[C@@H]4O)cc3)cc2)o1 [Compound 7, (2R,3S,4R,5S,6R)-2-[[(2R,3S,4S,5S,6R)-3,5-Dihydroxy-2-(hydroxymethyl)-6-[4-[4-(5-methyl-1,3,4-oxadiazol-2-yl)phenyl]phenoxy]tetrahydropyran-4-yl]methyl]-6-(hydroxymethyl)tetrahydropyran-3,4,5-triol]",94
8,"CNC(=O)c1cc(C(=O)NC)cc(-c2ccc(O[C@H]3O[C@H](CO)[C@@H](O)[C@H](C[C@H]4O[C@H](CO)[C@@H](O)[C@H](O)[C@@H]4O)[C@@H]3O)cc2)c1 [Compound 8, 5-[4-[(2R,3S,4S,5S,6R)-3,5-Dihydroxy-6-(hydroxymethyl)-4-[[(2R,3S,4R,5S,6R)-3,4,5-trihydroxy-6-(hydroxymethyl)tetrahydropyran-2-yl]methyl]tetrahydropyran-2-yl]oxyphenyl]-N1,N3-dimethyl-benzene-1,3-dicarboxamide]",64
9,"CNC(=O)Cc1cccc(-c2ccc(O[C@H]3O[C@H](CO)[C@@H](O)[C@H](C[C@H]4O[C@H](CO)[C@@H](O)[C@H](O)[C@@H]4O)[C@@H]3O)cc2)c1 [Compound 9, 2-[3-[4-[(2R,3S,4S,5S,6R)-3,5-Dihydroxy-6-(hydroxymethyl)-4-[[(2R,3S,4R,5S,6R)-3,4,5-trihydroxy-6-(hydroxymethyl)tetrahydropyran-2-yl]methyl]tetrahydropyran-2-yl]oxyphenyl]phenyl]-N-methyl-acetamide]",79
10,"CNC(=O)Cc1cccc(-c2cccc(O[C@H]3O[C@H](CO)[C@@H](O)[C@H](C[C@H]4O[C@H](CO)[C@@H](O)[C@H](O)[C@@H]4O)[C@@H]3O)c2)c1 [Compound 10, 2-[3-[3-[(2R,3S,4S,5S,6R)-3,5-Dihydroxy-6-(hydroxymethyl)-4-[[(2R,3S,4R,5S,6R)-3,4,5-trihydroxy-6-(hydroxymethyl)tetrahydropyran-2-yl]methyl]tetrahydropyran-2-yl]oxyphenyl]phenyl]-N-methyl-acetamide]",50
11,"O=c1[nH]cc(-c2ccc(O[C@H]3O[C@H](CO)[C@@H](O)[C@H](C[C@H]4O[C@H](CO)[C@@H](O)[C@H](O)[C@@H]4O)[C@@H]3O)cc2)c(=O)[nH]1 [Compound 11, 5-[4-[(2R,3S,4S,5S,6R)-3,5-Dihydroxy-6-(hydroxymethyl)-4-[[(2R,3S,4R,5S,6R)-3,4,5-trihydroxy-6-(hydroxymethyl)tetrahydropyran-2-yl]methyl]tetrahydropyran-2-yl]oxyphenyl]-1H-pyrimidine-2,4-dione]",97
12,"O=C1NCC(c2ccc(O[C@H]3O[C@H](CO)[C@@H](O)[C@H](C[C@H]4O[C@H](CO)[C@@H](O)[C@H](O)[C@@H]4O)[C@@H]3O)cc2)=C(O)N1 [Compound 12, 5-[4-[(2R,3S,4S,5S,6R)-3,5-Dihydroxy-6-(hydroxymethyl)-4-[[(2R,3S,4R,5S,6R)-3,4,5-trihydroxy-6-(hydroxymethyl)tetrahydropyran-2-yl]methyl]tetrahydropyran-2-yl]oxyphenyl]-6-hydroxy-3,4-dihydro-1H-pyrimidin-2-one]",111
13,"CNC(=O)c1cc(C(=O)NC)cc(-c2cccc(O[C@H]3O[C@H](CO)[C@@H](O)[C@H](C[C@H]4O[C@H](CO)[C@@H](O)[C@H](O)[C@@H]4O)[C@@H]3O)c2)c1 [Compound 13, 5-[3-[(2R,3S,4S,5S,6R)-3,5-Dihydroxy-6-(hydroxymethyl)-4-[[(2R,3S,4R,5S,6R)-3,4,5-trihydroxy-6-(hydroxymethyl)tetrahydropyran-2-yl]methyl]tetrahydropyran-2-yl]oxyphenyl]-N1,N3-dimethyl-benzene-1,3-dicarboxamide]",48
14,"CNC(=O)c1ccc(-c2ccc(C)c(O[C@H]3O[C@H](CO)[C@@H](O)[C@H](C[C@H]4O[C@H](CO)[C@@H](O)[C@H](O)[C@@H]4O)[C@@H]3O)c2)cc1 [Compound 15, 4-[3-[(2R,3S,4S,5S,6R)-3,5-Dihydroxy-6-(hydroxymethyl)-4-[[(2R,3S,4R,5S,6R)-3,4,5-trihydroxy-6-(hydroxymethyl)tetrahydropyran-2-yl]methyl]tetrahydropyran-2-yl]oxy-4-methyl-phenyl]-N-methyl-benzamide]",19
